Legend:
Assay type in all cases: cell-based, human
[1] = system: amniotic epithelial cells; assay: Isolation of amniotic epithelial cells from amniotic tissue, living cells counted by trypan blue
Protocol: 5 g of amniotic tissue was weighed and washed with HBSS. For stable isolation of amniotic epithelial cells, the washing process was carried out using HBSS buffer more similar to the constituents of the human body rather than using general PBS. The washed amniotic tissue was transferred into a 50-ml tube, and 10 mM DTT was added thereto. After treatment with DTT for 30 minutes, the supernatant was discarded, the amniotic tissue was finely cut, and the finely cut amniotic tissue was treated with fresh 0.05% trypsin-EDTA at 37° C. for 42 minutes under stirring, thus chemically degrading the tissue. The chemically degraded tissue was vortexed for 1 minute, and then it was primarily filtered through a 1-mm mesh and secondarily filtered through a 100-μm mesh, thus removing non-degraded tissue. The filtered tissue was centrifuged at 1800 rpm for 10 minutes. The single cell pellets at the bottom were well suspended, thus obtaining amniotic epithelial cells. Living cells were visually counted under a microscope using a hemocytometer according to trypan blue dye method and, as a result, the number of cells counted immediately after isolation was 3.72×10^7 cells (FIG. 1 (A)). On the other hand, in the case in which amniotic epithelial cells were isolated from amniotic tissue by treatment with trypsin alone without the addition of DTT, the number of cells counted immediately after isolation was 9.25×10^5 cells (FIG. 1 (B)).

[2] = system: amniotic epithelial cell-derived adult stem cells; assay: Culture and subculture of amniotic epithelial cells in the presence of ROCK inhibitor; conditions: 10 μM ROCK inhibitor added 4 days after isolation of the amniotic epithelial cells, FIG. 2
Protocol: The obtained amniotic epithelial cells were cultured in a medium (Gibco) consisting of a 1:1 mixture of DMEM (Dulbecco modified Eagle medium) and F-12 (nutrient mixture) to which FBS, ascorbic acid, epidermal growth factor, insulin, an antibiotic and 10 μM of ROCK inhibitor Y-27632 have been added at the concentrations shown in Table 2 below. After 3 days of culture, the adult stem cells derived from the cultured amniotic epithelial cells were washed with HBSS buffer, and then incubated with Tryple-express (Gibco) or 0.25% trypsin-EDTA at 37° C. for 10 minutes. An FBS-containing medium was added thereto to inactivate trypsin, and then 5×10^6 stem cells derived from the amniotic epithelial cells were obtained and seeded into a fresh medium and subcultured. For each reseeding for subcultures, 10 μM of ROCK inhibitor was added to each fresh medium.

[3] = system: amniotic epithelial cell-derived adult stem cells; assay: Proliferation of stem cells at various concentrations of ROCK inhibitor; parameters: proliferation of the cells: dose or concentration left out as unconfirmed
Protocol: In order to examine the proliferation potential of amniotic epithelial cell-derived adult stem cells at various concentrations of ROCK inhibitor, the amniotic epithelial cells obtained in Example 1 were subcultured in DMEM/F-12 media containing FBS, ascorbic acid, epidermal growth factor, insulin and an antibiotic, to which ROCK inhibitor Y-27632 has been added at various concentrations of 100 μM, 1 μM, 100 nM and 10 nM. After 1 day and 4 days of the subculture, the optimum ROCK inhibitor Y-27632 concentration for the culture of the adult stem cells was examined.

[4] = system: amniotic epithelial cell-derived adult stem cells; assay: Proliferation of stem cells according to ROCK inhibitor treatment period
Protocol: In order to further improve the proliferation ability of the amniotic epithelial cells obtained in Example 1, the method used in the embryonic stem cell study (Watanabe et al., Nature Biotechnology, 25:681, 2007) and the method of adding ROCK inhibitor during the culture were compared. In other words, the culture in which 10 μM of ROCK inhibitor was added only before reseeding was compared with the culture in which the ROCK inhibitor was added even after reseeding.

[5] = system: amniotic epithelial cell-derived adult stem cells; assay: Effect of the addition of ROCK inhibitor on proliferation of stem cells (Comparative Example 1); conditions: 10 μM; observed 1, 2 and 3 days after seeding
Protocol: In order to examine the effect of ROCK inhibitor, 4×10^6 amniotic epithelial cells obtained in Example 1 were subcultured in a DMEM/F-12 medium containing FBS, ascorbic acid, epidermal growth factor, insulin and an antibiotic for 4 days. Then, the cells were seeded into each of a medium containing 10 μM of the ROCK inhibitor Y-27632 and a medium containing no ROCK inhibitor and were observed 1 day, 2 days and 3 days after seeding.

O[C@H](CS)[C@H](O)CS (racemic) [DTT, dithiothreitol]
number of cells counted immediately after isolation ([1]; 5 g amniotic tissue, 10 mM DTT 30 minutes, then 0.05% trypsin-EDTA 37° C. 42 minutes): 3.72×10^7 cells | number of isolated amniotic epithelial cells and number of cells after culture, versus trypsin alone ([1]; DTT and trypsin (FIG. 1 A, C) versus trypsin alone (B, D)): significantly larger

CC(N)C1CCC(C(=O)Nc2ccncc2)CC1 (stereo not drawn) [ROCK inhibitor, Y-27632]
number of the adult stem cells [2]: rapidly increased | degree of proliferation ([3]; 10 nM, after 1 day and 4 days of subculture, versus untreated control): did not greatly differ from that in the control | cell morphology / differentiation ([3]; 100 μM, after 1 day and 4 days of subculture): a cell morphology change or cell differentiation appeared | proliferation of the cells ([3]; after 1 day and 4 days of subculture): significantly increased | most preferred concentration for the culture of the adult stem cells ([3]; tested at 100 μM, 1 μM, 100 nM and 10 nM): about 10 μM | proliferation ability of the adult stem cells ([4]; case (A): 10 μM ROCK inhibitor only before reseeding, cultured 1 day): clearly increased compared to the control | proliferation ability of adult stem cells ([4]; case (B): ROCK inhibitor continuously added during reseeding and culture, 1 day): superior compared to the case (A) | apoptosis of the amniotic epithelial cells [5]: inhibited | proliferation of adult stem cells [5]: significantly increased

B1: trypsin: 0.05% trypsin-EDTA (Gibco) used to isolate single cells from amniotic tissue (protein, UniProt P00761 9-231, looked up)
Trypsin: IVGGYTCAANSIPYQVSLNSGSHFCGGSLINSQWVVSAAHCYKSRIQVRLGEHNIDVLEGNEQFINAAKIITHPNFNGNTLDNDIMLIKLSSPATLNSRVATVSLPRSCAAAGTECLISGWGNTKSSGSSYPSLLQCLKAPVLSDSSCKSSYPGQITGNMICVGFLEGGKDSCQGDSGGPVVCNGQLQGIVSWGYGCAQKNKPGVYTKVCNYVNWIQQTIAAN
modifications: with EDTA
notes: 0.05% trypsin-EDTA (Gibco) used to isolate single cells from amniotic tissue
number of cells counted immediately after isolation ([1]; treatment with trypsin alone without the addition of DTT): 9.25×10^5 cells

— patent US8455251B2, “Method for isolating and culturing adult stem cells derived from human amniotic epithelium” (RNL Bio Co., Ltd., priority 2007, dated 2013)
